Results reported in patent publication US20100197608A1, “USE OF MELANOTROPHIN-POTENTIATING FACTOR AS A THERAPEUTIC AGENT” (priority 2007, published 2010).
Where a SMILES comes first, the peptide text is derived from it.

How the values were obtained:
[1] = system: MRSA; details: 5 micrograms per ml
[2] = in vitro; details: human, CEM-SS cells
[3] = Cytotoxicity in HepG2-2.2.15 cells (dye uptake); details: human
[4] = system: Pseudomonas aeruginosa; type: cell-based; details: 5 micrograms per ml
[5] = in vitro; details: human, MRC-5 cells
[6] = system: Streptococcus pneumoniae; type: cell-based; details: 5 micrograms per ml
[7] = system: HIV-1IIIB; assay: HIV-1 antiviral assay (CPE reduction) in CEM-SS cells; type: cell-based; details: peptide 10 micrograms per ml; 6 days post-infection; MTS
[8] = system: CEM-SS cells; assay: Cytotoxicity in CEM-SS cells (MTS); details: peptide 10 micrograms per ml
[9] = system: MRC-5 cells; details: human, 6 days

NCCCC[C@H](NC(=O)[C@@H](N)CCCCN)C(=O)NCC(=O)N[C@@H](CCC(=O)O)C(=O)O [MPF, Lys-Lys-Gly-Glu-OH] (H-KKGE-OH)
% inhibition [1]: 0.0%
viability at 10 micrograms per ml [2]: 100%
viability at 144 h, 10 micrograms per ml [3]: 100%
% inhibition [4]: 0.0%
viability at 144 h [5]: 96.1%
% inhibition [6]: 0.0%

Cc1cn([C@H]2C[C@H](N=[N+]=[N-])[C@@H](CO)O2)c(=O)[nH]c1=O [AZT]
% CPE reduction in HIV-1 infected CEM-SS cells [7]: 99%
% Cell viability [8]: 97%

CC(C)(C)NC(=O)[C@@H]1CN(Cc2cccnc2)CCN1C[C@@H](O)C[C@@H](Cc1ccccc1)C(=O)N[C@H]1c2ccccc2C[C@H]1O [Indinavir, indinavir]
% CPE reduction in HIV-1 infected CEM-SS cells [7]: 100%

Nc1nc(O)c2ncn(COC(CO)CO)c2n1 [Ganciclovir]
% Cell viability [9]: 100%
